Results: patent publication US20050020565A1, “CCK-1 receptor modulators” (priority 2003, published 2005)

| SMILES | melting point |
| --- | --- |
| COc1ccc(-n2nc(C[C@H](C(=O)[O-])c3cccc(C)c3)cc2-c2ccc(Cl)c(Cl)c2)cc1.[Na+] (stereo in doubt) [Example 1] | 295.5 to 297.5 °C |
| COc1ccc(-n2nc(C[C@H](C(=O)[O-])c3cccc(C)c3)cc2-c2ccc(Cl)c(Cl)c2)cc1.[Na+] (stereo in doubt) [Example 505] | 280 to 285 °C |
| CON(C)C(=O)c1ccc(Cl)c(Cl)c1 [Example 511, 3,4-Dichloro-N-methoxy-N-methyl-benzamide] | 39.5 to 43.2 °C |
